# Results published in PMC4302236, “Functional profile of a novel modulator of serotonin, dopamine, and glutamate neurotransmission” (Psychopharmacology, 2014).
# Test system: GluN2B phosphorylated at tyrosine (Y) 1472
# Experiment: GluN2B Y1472 phosphorylation state in nucleus accumbens
# Format: in vivo
# Conditions: mice, 3 mg/kg p.o., 120 min after dosing
# Description: Brains were rapidly removed from the skull. […] Brain tissue was prepared for SDS-PAGE as described above, and protein homogenates (15 μg) were separated on 3-7 % gradient gels, and proteins transferred to nitrocellulose membranes. Portions of each membrane were immunoblotted for GluN2B phosphorylated at […] (rabbit polyclonal) and total GluN2B (mouse monoclonal) (Thermo Fisher Scientific, Rockford, IL).
smiles,measurement,value
"CN1CCN2c3c(cccc31)[C@@H]1CN(CCCC(=O)c3ccc(F)cc3)CC[C@@H]12 [ITI-007, 1-(4-fluoro-phenyl)-4-((6bR,10aS)-3-methyl-2,3,6b,9,10,10a-hexahydro-1H,7H-pyrido[3′,4′:4,5]pyrrolo[1,2,3-de]quinoxalin-8-yl)-butan-1-one]",GluN2B phosphorylation at Y1472 in nucleus accumbens,180±20 % of control
